Results from patent publication US20230346797A1, “INHIBITORS OF THE PLASMODIAL SURFACE ANION CHANNEL AS ANTIMALARIALS” (The United States of America,as represented by the …, priority 2008, published 2023).

Tests used:
[1] = system: P. falciparum; assay: In vitro parasite growth inhibition, SYBR Green I-based fluorescence assay for parasite nucleic acid; type: cell-based; settings: Plasmodium falciparum, 72 h; 3 days culture; read-out: In vitro growth inhibitory IC50
[2] = system: P. falciparum; assay: In vitro parasite growth inhibition by combinations of two PSAC antagonists (isobologram)
Method: Parasite killing by identified PSAC antagonists was evaluated using a SYBR Green I-based fluorescence assay for parasite nucleic acid in 96-well format. […] Cultures were maintained for 3 days at 37° C. in 5% 02, 5% CO2. […] For each antagonist concentration, the mean of triplicate measurements was calculated after subtraction of background fluorescence from cultures killed by 20 μM chloroquine, a known antimalarial agent.
The solid line represents the line of additive killing.

[3] = in combination with compound 11 (Comp. A)
[4] = in combination with compound 24 (Comp. A)
[5] = in combination with compound 26 (Comp. A)
[6] = in combination with compound 31 (Comp. A)

Structure (SMILES) | IC50 [1] | other results
Cc1cccc(N2CCN(C(=O)c3ccc4c(c3)NC(=O)c3ccccc3S4)CC2)c1C [Compound 2] | 1 µM | 
O=C1Nc2cc(C(=O)N3CCN(c4ccccc4)CC3)ccc2Sc2ccccc21 [Compound 3] | 0.67 µM | 
Cc1ccc(C)c(N2CCN(C(=O)c3ccc4c(c3)NC(=O)c3ccccc3S4)CC2)c1 [Compound 5] | 1.33 µM | 
O=C1Nc2cc(C(=O)N3CCC(N4CCCCC4)CC3)ccc2Sc2ccccc21 [Compound 9] | 6.9 µM | 
O=C1Nc2cc(C(=O)N3CCC(Cc4ccccc4)CC3)ccc2Sc2ccccc21 [Compound 10] | 3.01 µM | 
CCC(Cc1ccccc1)NC(=O)c1ccc2c(c1)NC(=O)c1ccccc1S2 (stereo not shown) [Compound 11] | 3 µM | 
CCOc1ccc(C(=O)Nc2ccc(-c3nn4c(C)nnc4s3)cc2)cc1 [Compound 13] | 3.85 µM | parasite killing by combination [2, 3]: S; parasite killing by combination [2, 4]: S; parasite killing by combination [2, 5]: S; parasite killing by combination [2, 6]: S; parasite killing by combination ([2]; in combination with compound 32 (Comp. A)): S; parasite killing by combination ([2]; in combination with compound 33 (Comp. A)): S; parasite killing by combination ([2]; in combination with compound 34 (Comp. A)): S
O=C(COc1ccc2ccccc2c1)Nc1cccc(-c2nc3ncccc3o2)c1 [Compound 15] | 6 µM | 
COc1ccc(OCC(=O)Nc2ccc(-c3nn4c(C)nnc4s3)cc2)cc1 [Compound 16] | 4.98 µM | parasite killing by combination [2, 4]: S; parasite killing by combination ([2]; in combination with compound 35 (Comp. A)): S
CCc1nnc2sc(-c3ccc(NC(=O)c4ccc(N5CCCC5)c([N+](=O)[O-])c4)cc3)nn12 [Compound 17] | 39 µM | 
CCCCOc1ccc(C(=O)Nc2ccc(-c3nn4c(C)nnc4s3)cc2)cc1 [Compound 18] | 2.14 µM | parasite killing by combination, isobologram (FIG. 3C) ([2]; in combination with compound 24 (component A antagonist), mixtures producing 50% parasite killing): synergistic parasite killing
Cc1nnc2sc(-c3ccc(NC(=O)c4ccc(Br)o4)cc3)nn12 [Compound 19] | 2.74 µM | 
Cc1cc(-c2nn3c(C)nnc3s2)ccc1NC(=O)c1ccco1 [Compound 20] | 21.6 µM | 
O=C(Nc1ccc(-c2noc(-c3cccs3)n2)cc1)c1cccnc1 [Compound 21] | 10 µM | parasite killing by combination [2, 4]: S
CCCCCC(=O)Nc1cc(-c2nn3c(C)nnc3s2)ccc1C [Compound 22] | 21.5 µM | 
Cc1cc(-c2nn3c(C)nnc3s2)ccc1NC(=O)C(C)C [Compound 23] | 36.7 µM | 
COc1ccc2cc3cc(C(=O)N(C)C4CCCCC4)oc3nc2c1 [Compound 25] | 4 µM | parasite killing by combination [2, 3]: S; parasite killing by combination [2, 4]: S; parasite killing by combination [2, 5]: S; parasite killing by combination [2, 6]: S
CCCN(C(=O)c1cc2cc3ccc(C)cc3nc2o1)c1cccc(C)c1 [Compound 26] | 6.9 µM | 
COc1ccc(-c2nc3c(=O)[nH]c4ccccc4c3s2)cc1 [Compound 32] | 3 µM | 
COc1ccc(-c2nc3c(=O)n(C)c4ccccc4c3o2)cc1 [Compound 33] | > 20 µM | 
CCCCCn1c(=O)c2nc(-c3ccc(OC)cc3)oc2c2ccccc21 [Compound 34] | 15 µM | 
COc1cc(OC)nc(Sc2ccc(NC(=O)c3ccc(C(C)(C)C)cc3)cc2)n1 [Compound 36] |  | parasite killing by combination [2, 4]: S
